This is an account of results in patent publication US8841348B2, “Anti-inflammatory formulation” (AKL Inflammatory Limited, priority 2005, dated 2014).

SMILES strings stand for the structures.

The nature of this assay: Applicant's clinical observation of paeonol and apocynin alone versus together. The format is in vivo. The note with it: used on their own. An excerpt: The applicant has noted that the effect of the combination of paeonol and apocynin together is rather better than would have been expected from studies using either of these alone.

For the compound `COc1ccc(C(C)=O)c(O)c1` [paeonol, 2-hydroxy-4-methoxy-acetophenone], the “anti-inflammatory and/or analgesic activity” value is given as “did not show anti-inflammatory and/or analgesic activity that could be clinically observed”. With `COc1cc(C(C)=O)ccc1O` [apocynin, 4-hydroxy-3-methoxyacetophenone] the entry was “did not show anti-inflammatory and/or analgesic activity that could be clinically observed”.
